pIC50: −log10 of the molar value. Structures can show the parent of a compound that is named as a salt.
Assays:
Erk2 = biological target: T1, Erk2; experiment: Cell-free kinase assay (ALPHA technology), Erk2-ALPHA; format: biochemical; conditions: 10 μM ATP, recombinant human kinase
T1 construct: in some cases as full-length kinases, in some cases as truncated fragments; purchased Upstate 14-173
Description: (§1) The inhibitory effect of the inventive compounds was tested on various human serine/threonine kinases, tyrosine kinases and lipid kinases in enzymatic assays. Recombinant human kinases, for example Erk2, PI3Kalpha, -beta, -gamma, -delta, p38alpha, p38gamma, Jnk1, Jnk2 and others were used, in some cases as full-length kinases, in some cases as truncated fragments—but at least consisting of the functional kinase domains. The commercial kinase proteins (Proqinase, Upstate) were used as recombinant fusion proteins with GST (glutathione S-transferase) tag or His tag. Depending on the substrate type, the different kinase reactions were quantified by means of suitable ALPHA™ beads (PerkinElmer).
(§2) The substrate testing on the Erk assay is described in detail below. Selected test results of the Erk2, PI3Kalpha assays are cited below. […] The kinase reaction was then stopped by adding 10 μl of the ALPHA bead mix (10 μg/ml, #6760617/PerkinElmer), pre-incubated with anti-phospho MBP antibody (320 μM, #05-429/Upstate), in 25 mM Tris, 200 mM NaCl, 100 mM EDTA and 0.3% BSA, and left to stand overnight. • b) PI3K-ALPHAs (e.g. PI3Kalpha): The test substance, 1 ng of PI3Kalpha (#14-602, Upstate), 100 μM ATP and 20 μM PIP2 substrate (#P4508, Echelon) on a 384-well Optiplate (Perkin Elmer) for 1 h in 50 mM Hepes, 50 mM NaCl, 5 mM MgCl2, 0.05% Chaps, 5 mM DTT at pH 7.4. Subsequently, the kinase reaction was stopped by adding the ALPHA bead mix (10 μg/ml, #6760603/PerkinElmer), preincubated with 1 nM GST:Grp1 fusion protein (Upstate) and 15 nM biotinylated PIP3 (#C-39B6/Echelon) in 50 mM Hepes, 50 mM NaCl, 50 mM EDTA and 0.1% BSA, and left to stand overnight.
(§3) The fluorescence was detected the next morning in a Fusion™ alpha instrument (Perkin Elmer).
(§4) The calculation of % inhibition values per substance concentration was done by means of the following formula from the raw data determined in the Fusion™ alpha:
(§5) The controls were each determined 8 times, the substance samples each twice. 0% control contained neither any ATP nor any substrate; the 100% control contained no test substance. The IC50 values were determined with GraphPadPrism.

PI3Kalpha = biological target: T2, PI3Kalpha (Homo sapiens, UniProt P42336); experiment: Cell-free kinase assay (ALPHA technology), PI3K-ALPHA; format: biochemical; conditions: 100 μM ATP, recombinant human kinase
T2 construct: in some cases as full-length kinases, in some cases as truncated fragments; purchased Upstate 14-602
T2 sequence (P42336 whole entry, the tested form may be a part): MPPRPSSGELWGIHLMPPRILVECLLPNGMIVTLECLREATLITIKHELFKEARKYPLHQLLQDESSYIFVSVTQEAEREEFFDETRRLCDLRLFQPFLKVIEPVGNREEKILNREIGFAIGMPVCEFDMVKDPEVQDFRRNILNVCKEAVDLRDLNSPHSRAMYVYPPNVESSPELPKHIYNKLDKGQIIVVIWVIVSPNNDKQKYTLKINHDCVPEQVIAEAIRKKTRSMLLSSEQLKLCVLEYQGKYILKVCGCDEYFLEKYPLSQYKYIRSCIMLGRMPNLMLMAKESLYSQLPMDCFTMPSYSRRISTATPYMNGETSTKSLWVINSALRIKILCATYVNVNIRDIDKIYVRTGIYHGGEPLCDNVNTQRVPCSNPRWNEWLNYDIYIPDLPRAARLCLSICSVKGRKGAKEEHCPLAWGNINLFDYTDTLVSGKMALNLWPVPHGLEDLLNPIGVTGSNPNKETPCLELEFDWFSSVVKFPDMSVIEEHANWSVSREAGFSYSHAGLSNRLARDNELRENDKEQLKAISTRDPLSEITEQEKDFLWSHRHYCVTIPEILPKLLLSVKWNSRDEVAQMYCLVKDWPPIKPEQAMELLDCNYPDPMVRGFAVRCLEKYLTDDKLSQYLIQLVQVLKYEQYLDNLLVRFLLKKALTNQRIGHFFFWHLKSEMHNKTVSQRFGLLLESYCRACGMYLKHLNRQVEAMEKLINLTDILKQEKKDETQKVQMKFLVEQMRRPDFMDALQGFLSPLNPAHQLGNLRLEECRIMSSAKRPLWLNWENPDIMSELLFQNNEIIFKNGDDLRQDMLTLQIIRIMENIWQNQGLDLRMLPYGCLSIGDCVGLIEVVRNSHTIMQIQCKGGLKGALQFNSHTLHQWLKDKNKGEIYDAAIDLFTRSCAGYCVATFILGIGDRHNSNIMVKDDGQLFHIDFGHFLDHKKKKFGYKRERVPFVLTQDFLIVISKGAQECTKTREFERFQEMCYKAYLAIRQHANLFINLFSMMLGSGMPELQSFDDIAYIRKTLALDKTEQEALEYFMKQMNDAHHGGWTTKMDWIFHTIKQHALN
T2 sequence (P27986 whole entry partner, the tested form may be a part): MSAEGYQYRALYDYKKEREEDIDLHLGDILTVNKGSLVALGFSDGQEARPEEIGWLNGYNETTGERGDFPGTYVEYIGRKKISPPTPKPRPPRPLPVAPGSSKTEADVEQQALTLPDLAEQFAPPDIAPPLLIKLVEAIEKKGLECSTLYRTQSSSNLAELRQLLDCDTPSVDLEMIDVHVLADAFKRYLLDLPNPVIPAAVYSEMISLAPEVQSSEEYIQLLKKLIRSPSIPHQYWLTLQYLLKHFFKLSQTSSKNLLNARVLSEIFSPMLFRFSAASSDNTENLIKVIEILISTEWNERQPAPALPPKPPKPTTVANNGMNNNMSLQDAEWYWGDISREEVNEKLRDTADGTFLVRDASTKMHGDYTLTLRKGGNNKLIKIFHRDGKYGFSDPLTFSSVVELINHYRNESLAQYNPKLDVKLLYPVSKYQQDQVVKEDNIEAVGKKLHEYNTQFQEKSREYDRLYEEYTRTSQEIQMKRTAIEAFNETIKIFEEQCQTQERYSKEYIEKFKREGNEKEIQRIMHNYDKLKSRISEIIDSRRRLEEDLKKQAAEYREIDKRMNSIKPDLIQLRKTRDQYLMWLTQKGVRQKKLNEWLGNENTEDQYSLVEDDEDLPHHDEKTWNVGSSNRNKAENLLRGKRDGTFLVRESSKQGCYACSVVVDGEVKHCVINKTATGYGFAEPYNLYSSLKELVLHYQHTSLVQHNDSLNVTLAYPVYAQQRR
Description: as §1, §2, §3, §4, §5

Jnk1 + Jnk2 = experiment: Cell-free kinase assay (ALPHA technology), Jnk1 + Jnk2; format: biochemical; conditions: at 10 μM or 100 μM* ATP, recombinant human kinases
Description: as §1, with “(PerkinElmer). […]” for “(PerkinElmer).”
as §3, §4, §5

p38alpha = biological target: T3, p38alpha (Homo sapiens, UniProt Q16539); experiment: Cell-free kinase assay (ALPHA technology), p38alpha; format: biochemical; conditions: at 10 μM or 100 μM* ATP, recombinant human kinase
T3 construct: in some cases as full-length kinases, in some cases as truncated fragments
T3 sequence (Q16539 whole entry, the tested form may be a part): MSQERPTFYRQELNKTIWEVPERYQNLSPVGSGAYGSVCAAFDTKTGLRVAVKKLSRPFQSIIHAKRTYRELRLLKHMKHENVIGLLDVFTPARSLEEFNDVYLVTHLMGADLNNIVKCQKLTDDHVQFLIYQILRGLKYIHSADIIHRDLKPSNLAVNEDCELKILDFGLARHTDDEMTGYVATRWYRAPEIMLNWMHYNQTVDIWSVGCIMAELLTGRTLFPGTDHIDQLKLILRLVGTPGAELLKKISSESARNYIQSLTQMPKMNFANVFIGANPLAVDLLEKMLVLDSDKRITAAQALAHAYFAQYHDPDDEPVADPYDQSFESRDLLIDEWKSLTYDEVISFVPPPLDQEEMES
Description: as §1, with “(PerkinElmer). […]” for “(PerkinElmer).”
as §3, §4, §5

T1 sequence (P63085 whole entry, the tested form may be a part): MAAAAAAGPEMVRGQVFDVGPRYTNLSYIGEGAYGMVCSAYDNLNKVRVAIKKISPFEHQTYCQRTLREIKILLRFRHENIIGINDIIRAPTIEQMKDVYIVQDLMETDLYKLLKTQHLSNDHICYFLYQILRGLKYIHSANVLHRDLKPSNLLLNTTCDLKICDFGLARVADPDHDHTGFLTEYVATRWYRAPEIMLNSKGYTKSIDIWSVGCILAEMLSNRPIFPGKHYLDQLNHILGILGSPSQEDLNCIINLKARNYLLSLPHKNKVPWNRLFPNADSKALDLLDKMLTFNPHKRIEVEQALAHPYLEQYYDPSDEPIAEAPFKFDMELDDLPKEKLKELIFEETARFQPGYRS

Row | SMILES | pIC50 (Erk2) | pIC50 (PI3Kalpha) | pIC50 (Jnk1 + Jnk2) | melting point | further results
1 | CCNC(=O)Nc1ccc2ncc(/C=C/COC)nc2n1 [Compound 6, 1-Ethyl-3-[3-((E)-3-methoxypropenyl)pyrido[2,3-b]pyrazin-6-yl]urea] | 5.62 | 4.67 | – | – | –
2 | COc1cc(-c2cnc3ccc(NC(=O)NCCCCP(=O)(O)O)nc3n2)ccc1O [Compound 45, (4-{3-[3-(4-Hydroxy-3-methoxyphenyl)pyrido[2,3-b]pyrazin-6-yl]urea}butyl)phosphonic acid] | 6.61 | 4.90 | 6.01 | – | –
3 | CCNC(=O)Nc1ccc(-c2cnc3ccc(NC(=O)NCC)nc3n2)cn1 [Compound 25, 1-Ethyl-3-{3-[6-(3-ethylurea)pyridin-3-yl]pyrido[2,3-b]pyrazin-6-yl}urea] | 5.47 | 5.36 | 4.62 | – | –
4 | CCNC(=O)Nc1ccc2ncc(-c3ccc(OC(=O)Oc4ccccc4)cc3)nc2n1 [Compound 11, 4-[6-(3-Ethylurea)pyrido[2,3-b]pyrazin-3-yl]phenyl phenyl carbonate] | – | – | < 4.00 | – | –
5 | CCNC(=O)Nc1ccc2ncc(-c3cccc([Si](C)(C)C)c3)nc2n1 | – | – | – | 224 to 228 °C | –
6 | CCNC(=O)Nc1ccc2ncc(-c3ccc(OCCOCCOC)cc3)nc2n1 [Compound 29, 1-Ethyl-3-(3-{4-[2-(2-methoxyethoxy)ethoxy]phenyl}pyrido[2,3-b]pyrazin-6-yl)urea] | 6.40 | 5.64 | 4.62 | – | pIC50 (p38alpha): < 4.00
7 | C=CCONC(=O)Nc1ccc2ncc(-c3ccccc3)nc2n1 [Compound 8, 1-Allyloxy-3-(3-phenylpyrido[2,3-b]pyrazin-6-yl)urea] | – | – | 4.71 | – | pIC50 (p38alpha): < 4.00
8 | CCNC(=O)Nc1ccc2ncc(-c3ccc(OC(=O)OCCOC)cc3)nc2n1 [Compound 55, 4-[6-(3-Ethylurea)pyrido[2,3-b]pyrazin-3-yl]phenyl 2-methoxyethyl carbonate hydrochloride] | 6.09 | – | – | – | pIC50 (PI3Kalpha; hydrochloride): 5.44; pIC50 (Jnk1 + Jnk2; hydrochloride): 5.54
9 | CCNC(=O)Nc1ccc2ncc(C#Cc3ccsc3)nc2n1 [Compound 2, 1-Ethyl-3-(3-thiophen-3-ylethynylpyrido[2,3-b]pyrazin-6-yl)urea] | – | – | – | 239 to 242 °C (dec.) | –
10 | COCCOC(=O)Oc1ccc(-c2cnc3ccc(NC(=O)NCCCCO)nc3n2)cc1 [Compound 58, 4-{6-[3-(4-Hydroxybutyl)urea]pyrido[2,3-b]pyrazin-3-yl}phenyl 2-methoxyethyl carbonate hydrochloride] | 6.12 | 5.37 | 5.60 | – | –
11 | CCOP(=O)(CCCCNC(=O)Nc1ccc2ncc(-c3ccc(O)c(OC)c3)nc2n1)OCC [Compound 44, Diethyl (4-{3-[3-(4-hydroxy-3-methoxyphenyl)pyrido[2,3-b]pyrazin-6-yl]urea}butyl)phosphonate] | 5.55 | 4.97 | 5.08 | – | –
12 | COCCOC(=O)Oc1ccc(-c2cnc3ccc(NC(=O)NCCCCO)nc3n2)cc1 (as salt: hydrochloride) [Compound 58, 4-{6-[3-(4-Hydroxybutyl)urea]pyrido[2,3-b]pyrazin-3-yl}phenyl 2-methoxyethyl carbonate hydrochloride] | – | – | – | 165 to 168 °C | –
13 | CCNC(=O)Nc1ccc2ncc(-c3ccc(OC(=O)N(CC)CC)cc3)nc2n1 [Compound 12, 4-[6-(3-Ethylurea)pyrido[2,3-b]pyrazin-3-yl]phenyl diethylcarbamate] | – | – | 6.20 | – | pIC50 (p38alpha): 5.06
14 | CONC(=O)Nc1ccc2ncc(-c3ccccc3)nc2n1 [Compound 7, 1-Methoxy-3-(3-phenylpyrido[2,3-b]pyrazin-6-yl)urea] | – | – | 4.94 | – | pIC50 (p38alpha): < 4.00
15 | CCNC(=O)Nc1ccc2ncc(C#Cc3ccccc3)nc2n1 [Compound 1, 1-Ethyl-3-(3-phenylethynylpyrido[2,3-b]pyrazin-6-yl)urea] | – | – | – | 236 to 238 °C (dec.) | –
16 | CCNC(=O)Nc1ccc2ncc(-c3ccc(OC(=O)N(C)C)cc3)nc2n1 [Compound 19, 4-[6-(3-Ethylurea)pyrido[2,3-b]pyrazin-3-yl]phenyl dimethylcarbamate] | 5.41 | 5.64 | 5.00 | > 230 °C (dec.) | –
17 | CCNC(=O)Nc1ccc2ncc(-c3ccc(OC(=O)/C=C/c4ccccc4)cc3)nc2n1 [Compound 13, 4-[6-(3-Ethylurea)pyrido[2,3-b]pyrazin-3-yl]phenyl (E)-3-phenylacrylate] | 6.19 | – | < 4.00 | 236 to 238 °C | –

More lines, main results first:

Row | pIC50 (Erk2) | pIC50 (PI3Kalpha) | pIC50 (Jnk1 + Jnk2) | melting point | SMILES | further results
18 | – | – | – | 202 to 204 °C (dec.) | CCNC(=O)Nc1ccc2ncc(/C=C/C3CCCCC3)nc2n1 [Compound 5, 1-[3-((E)-2-Cyclohexylvinyl)pyrido[2,3-b]pyrazin-6-yl]-3-ethylurea] | –
19 | 6.44 | 5.74 | 5.30 | – | CCNC(=O)Nc1ccc2ncc(-c3ccc(CN4CCOCC4)cc3)nc2n1 [Compound 28, 1-Ethyl-3-[3-(4-morpholin-4-ylmethylphenyl)pyrido[2,3-b]pyrazin-6-yl]urea] | pIC50 (p38alpha): < 4.00
20 | – | – | – | 227 to 228 °C (dec.) | CCNC(=O)Nc1ccc2ncc(C#CC3CC3)nc2n1 [Compound 3, 1-(3-Cyclopropylethynylpyrido[2,3-b]pyrazin-6-yl)-3-ethylurea] | –
21 | – | – | – | 217 to 219 °C | CCNC(=O)Nc1ccc2ncc(/C=C/c3ccc(F)cc3)nc2n1 [Compound 27, 1-Ethyl-3-{3-[(E)-2-(4-fluorophenyl)vinyl]pyrido[2,3-b]pyrazin-6-yl}urea] | –
22 | < 4.00 | 5.92 | < 4.50 | 281 to 283 °C | CCNC(=O)Nc1ccc2ncc(-c3ccc(NC(=O)OC(C)(C)C)cc3)nc2n1 [Compound 21, tert-Butyl {4-[6-(3-ethylurea)pyrido[2,3-b]pyrazin-3-yl]phenyl}carbamate] | –
23 | 4.78 | 6.17 | 4.69 | – | CCNC(=O)Nc1ccc2ncc(Nc3ccc(NC(C)=O)cc3)nc2n1 [Compound 53, N-{4-[6-(3-Ethylurea)pyrido[2,3-b]pyrazin-3-ylamino]phenyl}acetamide] | –
24 | < 4.50 | 6.13 | 4.86 | 212 to 215 °C | CCNC(=O)Nc1ccc2ncc(-c3ccc(NC(=O)COCCOC)cc3)nc2n1 [Compound 30, N-{4-[6-(3-Ethylurea)pyrido[2,3-b]pyrazin-3-yl]phenyl}-2-(2-methoxyethoxy)acetamide] | –
25 | – | – | – | 246 to 248 °C | CCNC(=O)Nc1ccc2ncc(Nc3ccc(C4CCCCC4)cc3)nc2n1 [Compound 47, 1-[3-(4-Cyclohexylphenylamino)pyrido[2,3-b]pyrazin-6-yl]-3-ethylurea] | –
26 | < 4.00 | 5.92 | < 4.50 | 249 to 251 °C | CCNC(=O)Nc1ccc2ncc(-c3ccc(NC(=O)OCCOC)cc3)nc2n1 [Compound 22, 2-Methoxyethyl {4-[6-(3-ethylurea)pyrido[2,3-b]pyrazin-3-yl]phenyl}carbamate] | –
27 | – | – | – | 264 to 267 °C | CCNC(=O)Nc1ccc2ncc(Nc3ccc(-c4ccsc4)cc3)nc2n1 [Compound 52, 1-Ethyl-3-[3-(4-thiophen-3-ylphenylamino)pyrido[2,3-b]pyrazin-6-yl]urea] | –
28 | – | – | – | 207 to 209 °C | CCNC(=O)Nc1ccc2ncc(CCc3ccc(F)cc3)nc2n1 [Compound 26, 1-Ethyl-3-{3-[2-(4-fluorophenyl)ethyl]pyrido[2,3-b]pyrazin-6-yl}urea] | –

— patent publication US8217042B2, “Pyridopyrazines and their use as modulators of kinases” (Zentaris GmbH, priority 2005, dated 2012)
